Residues, ends and D or L forms follow the SMILES beside them.

The test system of experiment [1] is primary cerebellar granule neurons (CGNs). In words: Neurite outgrowth in primary culture of single CGNs. It is filed as cell-based, rat. The settings on record: single CGNs (FIG. 3); for maximal effect on neurite outgrowth: peptide immobilized on tissue culture plastic, coating concentration of 5 μg/ml. How it is done: Primary cerebellar granule neurons (CGNs) are prepared from postnatal day 3-4 rat pups according to Rønn, L. C., Doherty, P., Holm, A., Berezin, V., Bock, E. (2000). J. Neurochem. 75(2):665-71. Dissociated cerebella cells are grown at 37° C. and 5% CO2 in Neurobasal-A medium containing 20 mM Hepes, 100 U/ml penicillin, 100 μg/ml streptomycin, 1% glutamax and supplemented with B27 (all from Gibco BRL). For testing the effect of the peptides, CGNs are seeded in eight-well LabTech tissue chamber slides with a growth surface of Permanox plastic (Nunc) at a density of 10^4 cells/well in Neurobasal-A medium containing 100 U/ml penicillin, 100 μg/ml streptomycin, 1% glutamax and supplemented with B27. When treated with Heparinase III (1 U/ml), the enzyme is added to the culture medium immediately after plating. CGNs are treated with the enzyme for 1 h before addition of different concentrations (1 μg/ml, 5 μg/ml, and 20 μg/ml) of the peptides. After 24 h of culture, cells are fixed with paraformaldehyde, immunostained with primary mouse antibodies against CD90 (Thy-1) (1:200) (Caltag Laboratories, USA) (PC12-E2 cells) or GAP-43 (1:1000) (Chemicon, USA) (CGNs) and secondary Alexa Fluor®488 goat antibody against mouse IgG (1:1000) (Molecular Probes, Netherlands), and the length of neurites is measured by a stereological method as previously described (Ronn, L. C., Ralets, I., Hartz, B. P., Bech, M., Berezin, A., Berezin, V., Møller, A., Bock, E (2000). J Neurosci Methods. 100(1-2), 25-32).

The subject of experiment [2] is fibroblasts with or without NCAM expression (mouse fibroblastoid L-cells). Description: Random cell motility of fibroblasts, time-lapse video-recording. It is filed as cell-based. Conditions: both NCAM expressing fibroblasts and control fibroblasts (FIG. 5). How it is done: For evaluation the effect of the peptides on cell motility, confluent cultures of fibroblasts with or without NCAM expression are dislodged with 0.5 mg/ml of trypsin and 0.75 mM EDTA in a modified Puck's saline (Gibco BRL), seeded in six-well tissue culture plates (Nunc) at a density of 4×10^3 cells/cm^2 and grown for 24 h at 37° C. and at 5% CO2.
Random cell motility was evaluated by use of time-lapse video-recording and image analysis as described previously (Walmod, et al. (1998). Cell Motil Cytoskeleton. 40(3), 220-37). […]
Evaluation of cell motility and morphology is performed using the image processing software PRIMA. The positions of individual cells are determined by manual marking of the centers of the nuclei. […] The parameters of mean squared cell speed (Sτ), rate of diffusion (R), and locomotive index (LI) are determined according to Walmod, et al. (2000) (Methods Mol. Biology. 161, 59-83) as described below.
The displacement of a cell is the Euclidean distance between two points corresponding to the initial and final positions of the cell. […] The mean squared cell displacement of a cellular population after a given time (t1) of observation was calculated as […]
where P is the persistence time in direction (23). The mean cell speed, Sτ, was calculated as the ratio of the mean displacement of cells (<dτ>) to the time interval τ. […]

Experiment [3] relates to rat cerebella granular neurons (CGNs). In words: Neurite outgrowth of CGNs in co-culture with fibroblasts with or without NCAM expression. It is filed as cell-based. The settings on record: for neurite outgrowth of CGNs grown on fibroblasts without NCAM expression: CGNs on control fibroblasts without NCAM expression; for neurite outgrowth of CGNs grown on fibroblasts without NCAM expression / neurite outgrowth of CGNs grown on fibroblasts expressing NCAM: 24 h co-culture, different peptide concentrations (FIG. 1); for neurite outgrowth of CGNs grown on fibroblasts expressing NCAM: CGNs on monolayers of NCAM expressing fibroblasts. How it is done: Genetically modified fibroblasts (mouse fibroblastoid L-cells) with or without NCAM expression are seeded in eight-well LabTek tissue culture chamber slides (Nunc, Roskilde, Denmark) at a density 7×10^4 of cells/well and maintained at 37° C. and 5% CO2 in DMEM with 10% HS, 100 U/ml penicillin and 100 μg/ml streptomycin. 24 h after plating the medium is removed and CGNs (10^4 cells/well) are seeded on monolayers of fibroblasts with or without NCAM expression in Neurobasal-A medium containing 100 U/ml penicillin, 100 μg/ml streptomycin, 1% glutamax and supplemented with B27, and grown in co-culture for 24 hours, afterwards neurite outgrowth is measured. CGNs are prepared from postnatal day 3-4 rat pups according to Rønn, L. C., Doherty, P., Holm, A., Berezin, V., Bock, E. (2000). J. Neurochem. 75(2):665-71.

Experiment [4] concerns the target T1, recombinant Trk B receptor (Homo sapiens, UniProt Q16620).
T1 construct: purchased RD Systems (USA)
Description: BIAcore binding analysis to Trk B receptor. Conditions: HBP or Ig2 module immobilized on sensor chip CM5, Trk B injected, 25° C., pH 7.4 (FIG. 7). How it is done: Recombinant the Ig2 module of NCAM was prepared using in the yeast P. pastoris expression system (Invitrogen, USA) as previously described (Kiselyov et al., Biol. Chem. 272, 10125-10134, 1997). Recombinant Trk B receptor was purchased from RD Systems (USA).
Binding analysis was performed using a BIAcoreX instrument (Biosensor AB) at 25° C. using 10 mM sodium phosphate pH 7.4, 150 mM NaCl as running buffer. The flow-rate was 5 μl/min. Data were analysed by non-linear curve-fitting using the manufacture's software. The HBP or recombinant Ig 2 module of NCAM were immobilized on a sensor chip CM5 using amine coupling kit (Biosensor AB) as follows: 1) the two halves of the chip (designated Fc1 and Fc2) were activated by 20 μl activation solution; 2) the protein was immobilized on Fc1 using 12 μl 20 μg/ml protein in 10 mM sodium phosphate buffer pH 6.0; 3) Fc1 and Fc2 were blocked by 35 μl blocking solution. Binding of Trk B to the immobilized HBP or the Ig module II of NCAM was studied as follows: Trk B was injected simultaneously into Fc1 (with the immobilized HBP or Ig module II of NCAM) and Fc2 (with nothing immobilized). The curve representing unspecific binding of the compound to the surface of Fc2 was subtracted from the curve representing binding of Trk B to the immobilized protein (HBP or the Ig 2 module of NCAM) and the surface of Fc1. […]
Background: SPR reads the build-up and loss of mass on a sensor chip optically.

T1 sequence (Q16620 32-822): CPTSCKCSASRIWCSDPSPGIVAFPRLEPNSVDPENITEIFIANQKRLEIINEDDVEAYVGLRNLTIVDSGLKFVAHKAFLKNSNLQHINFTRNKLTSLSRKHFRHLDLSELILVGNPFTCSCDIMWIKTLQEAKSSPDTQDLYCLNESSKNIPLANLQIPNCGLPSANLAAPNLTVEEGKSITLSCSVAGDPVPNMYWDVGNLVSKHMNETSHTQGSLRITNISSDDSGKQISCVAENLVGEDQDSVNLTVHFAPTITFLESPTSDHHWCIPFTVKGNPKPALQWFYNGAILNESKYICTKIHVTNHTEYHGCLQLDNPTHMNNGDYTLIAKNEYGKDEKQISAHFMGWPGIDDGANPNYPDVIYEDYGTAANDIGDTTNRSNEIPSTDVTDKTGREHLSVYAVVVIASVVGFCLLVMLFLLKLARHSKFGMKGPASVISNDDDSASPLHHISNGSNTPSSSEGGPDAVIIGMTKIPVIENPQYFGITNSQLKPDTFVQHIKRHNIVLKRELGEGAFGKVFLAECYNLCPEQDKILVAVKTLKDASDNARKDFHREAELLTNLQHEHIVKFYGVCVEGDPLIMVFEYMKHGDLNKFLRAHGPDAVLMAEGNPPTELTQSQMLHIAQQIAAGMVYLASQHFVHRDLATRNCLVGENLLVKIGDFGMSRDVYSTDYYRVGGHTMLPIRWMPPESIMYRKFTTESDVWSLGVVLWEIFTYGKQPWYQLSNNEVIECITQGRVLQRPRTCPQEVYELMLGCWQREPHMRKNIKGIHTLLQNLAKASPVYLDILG

Turning to “KGRDVILAKDVRVI (HBP mutant (peptide M)) [HBP mutant, Lys-161 and Phe-166 substituted for Ala and Val]”, the “maximal effect on neurite outgrowth” value in experiment [1] was found to be 400%. For the same molecule, in experiment [2], the “cell motility: rate of diffusion (R), mean cell speed (Sτ), locomotive index (LI)” value is on record as “inhibitory effect on the motile behaviour of fibroblasts similar to the effect of HBP”. Besides, in experiment [3], the “neurite outgrowth of CGNs grown on fibroblasts without NCAM expression” value is listed as “still stimulates neurite outgrowth” and the “neurite outgrowth of CGNs grown on fibroblasts expressing NCAM” value is given as “does not affect the neurite outgrowth response”.
Regarding `Cc1c[nH]c(/C=C2\C(=O)Nc3ccccc32)c1CCC(=O)O` [SU5402, reference compound], the “effect on NCAM mediated neurite outgrowth in co-cultures of CGNs with NCAM expressing fibroblasts, in the presence of HBP” value in experiment [3] (NCAM expressing fibroblasts, HBP present (FIG. 2)) is “only partially inhibited”. In addition, the “effect on NCAM mediated neurite outgrowth in the absence of HBP” value in experiment [3] (NCAM expressing fibroblasts, no HBP (FIG. 2)) is on record as “blocks NCAM mediated neurite outgrowth”.
With `CC[C@H](C)[C@H](NC(=O)[C@H](Cc1ccccc1)NC(=O)[C@H](CCCNC(=N)N)NC(=O)[C@@H](NC(=O)[C@H](CC(=O)O)NC(=O)[C@H](CCCCN)NC(=O)[C@H](CCCCN)NC(=O)[C@H](CC(C)C)NC(=O)[C@@H](NC(=O)[C@@H](NC(=O)[C@H](CC(=O)O)NC(=O)[C@H](CCCNC(=N)N)NC(=O)CNC(=O)[C@@H](N)CCCCN)C(C)C)[C@@H](C)CC)C(C)C)C(N)=O` [HBP, KGRDVILKKDVRFI] (H-KGRDVILKKDVRFI-NH2; N-terminus and C-terminus assumed), the “change of the neurite outgrowth effect by treatment with heparinase III” value in experiment [1] (heparinase III 1 U/ml) was “reduced the effect of HBP”. The “maximal effect on neurite outgrowth” value in experiment [1] is recorded as 680%. In addition, the “cell motility: rate of diffusion (R), mean cell speed (Sτ), locomotive index (LI)” value in experiment [2] was “clear inhibition of cell motility”. Further, in experiment [3], the “neurite outgrowth of CGNs grown on fibroblasts without NCAM expression” value is listed as “in a dose-dependent manner increases neurite outgrowth” and the “neurite outgrowth of CGNs grown on fibroblasts expressing NCAM” value is given as “in a dose-dependent manner increases neurite outgrowth”. The “neuritogenic effect on CGNs grown on control fibroblasts under treatment with SU5402 (FGFR inhibitor)” value in experiment [3] (control fibroblasts without NCAM expression, plus SU5402 (FIG. 2)) is “is not blocked by treatment with SU5402”.

B1: Ig 2 module of NCAM: recombinant Ig2 module of NCAM prepared in the yeast P. pastoris expression system (protein)
chain: KLMFKNAPTPQEFKEGEDAVIVCDVVSSLPPTIIWKHKGRDVILKKDVRFIVLSNNYLQIRGIKKTDEGTYRCEGRILARGEINFKDIQVIVNV
As for B1, the Kd in experiment [4] was in the range of 1 to 10 nM.

For orientation: Kd means the free concentration of one partner at which half of the binding sites on the other are occupied at equilibrium, for simple one-to-one binding.

The values above are taken from patent US20080226639A1, “Heparin Binding Peptide” (Enkan Pharmaceuticals A/S, priority 2004, published 2008).
